Reference: patent publication US4162253A, “Acaricidal agents” (Pfizer Inc., priority 1975, dated 1979)

System: Adult Boophilus microplus
Assay: Topical application test on fully engorged adult Boophilus microplus ticks; overall reduction in anticipated reproduction (eggs laid and hatching)
Type: in vivo
Settings: Rhipicephalus microplus, read-out: In Vitro Activity (topical application) vs. Adult Boophilus microplus % Effect; for inhibition at 0.5 µg/tick: 0.5 μg/tick; for inhibition at 1 µg/tick: 1 μg/tick; for inhibition at 2 µg/tick: 2 μg/tick; for inhibition at 4 µg/tick: 4 μg/tick; for inhibition at 8 µg/tick: 8 μg/tick; for inhibition at 10 µg/tick: 10 μg/tick
Description: In one test, five freshly collected, fully engorged Boophilus microplus adult ticks are used for each acaricidal compound. Using a micro-pipette, 10 micro-liters of a solution containing 10 micro-grams of the acaricidal compound in ethanol or acetone, is applied to the dorsal surface of each of the ticks. The treated ticks are placed in weighted 1"×2" glass vials, weighted and stored at 26° C. and 80% relative humidity in plastic boxes for two weeks. The ticks are then removed from the vials and the vials weighted to give the weight of eggs laid by the ticks. Any reduction in the egg laying of the treated ticks is caculated as a percentage of the eggs laid by untreated control ticks.
The eggs are returned to the incubator for a further 3 weeks after which time the percentage of eggs hatching is estimated.
The percentage effect is calculated as the overall reduction in the anticipated reproduction of the ticks using the weight of eggs laid and the percentage of eggs hatching.
The test may be repeated using smaller amounts of the acaricidal compound for sufficiently active compounds.
The activity of many of the compounds of the Examples detailed hereinafter against the tick Boophilus microplus has been determined.

| SMILES | inhibition at 0.5 µg/tick [%] | inhibition at 1 µg/tick [%] | inhibition at 2 µg/tick [%] | inhibition at 4 µg/tick [%] | inhibition at 8 µg/tick [%] | inhibition at 10 µg/tick [%] |
| --- | --- | --- | --- | --- | --- | --- |
| CCCCCCCCCCCCCCC[N+]1=C2SC(C)=C(c3ccccc3)N2CC1 [Example 43] | 4 | 23 | 72 | 96 | 100 | 100 |
| CCCCCCCCCCCCCCCCC[N+]1=C2SC(C)=C(c3ccccc3)N2CC1 [Example 44] | 0 | 63 | 89 | 93 | 100 | 100 |
| CCCCCCCCCCCCCCCCCC[N+]1=C2SC(C)=C(c3ccccc3)N2CC1 [Example 45] |  |  |  |  |  | 88 |
| CCCCCCCCCC[N+]1=C2SC(C)=C(c3ccccc3)N2CC1 [Example 46] |  |  |  |  |  | 95 |
